{"source": "patent US6008190A", "about": "“Cobalt Schiff base compounds” (California Institute of Technology, priority 1995, dated 1999)", "key": {"Human a-thrombin": {"target": "T1, Human a-thrombin (Homo sapiens, UniProt P00734)", "T1 construct": "Human a-thrombin and the assay agent Spectrozyme; purchased American Diagnostica (Greenwich, Conn.); host or cells: purified blood product", "assay": "Thrombin inhibition assay, Spectrozyme TH hydrolysis at 406 nm", "format": "biochemical", "settings": "for activity relative to control / thrombin activity after incubation: 0.1 μM thrombin; for activity relative to control: 2.5 mM or similar concentration, 24 hours room temperature, Co(II) compound incubated under inert atmosphere then exposed to air; for thrombin activity after incubation: 2.5 mM, 24 hours at room temperature, assayed at 25° C.", "protocol": "FIG. 1 depicts the inhibition of thrombin. 3.07×10^-9 M thrombin at 25C was assayed using Spectrozyme TH (American Diagnostics), and the reaction followed at 406 nm using a Hewlett Packard HP8452A diode array spectrophotometer with temperature control. All assays were performed in 10 mM Tris, 10 mM HEPES, 0.1% polyethylene glycol, 0.5 M NaCl, pH 7.8. The Co(III) carboxypropyl(NH3)2 (labeled as Co(carboxypropyl)) was coupled to the active site directed peptide NH2 -GGGdFPR-CO-NIH SEQ ID NO: 1 (labeled as peptide dFPR). The observed inhibition greatly exceeded Co(carboxypropyl)(NH3) )2, the peptide, and Co(III)acacen(NH3)2 Cl (labeled as Co(acacen)).\nN-(2-hydroxyethyl)piperazine-N'-2-ethanesulfonic acid (HEPES) was from J. T. Baker Phillipsburg, N.J.). Cobaltous acetate tetrahydrate was obtained from FM Science (Gibbstown, N.J.). Human a-thrombin and the assay agent Spectrozyme (H-D-hexahydrotyrosyl-L-alanyl-L-arginine-p-nitroaniline diacetate) were purchased from American Diagnostica (Greenwich, Conn.). Antithrombotic peptides were manufactured as amides by the Beckman Institute Biopolymer Synthesis group at Caltech using solid phase methods. […] was from Pharmacia (Uppsala, Sweden). Enzyme reactions were followed spectrophotometrically using a photodiode array spectrophotometer. Ultrafiltration materials were from Amicon (Beverly Mass.). HPLC used Vydac reverse phase columns. ^1 H NMR were obtained on a 300 MHz FT-NMR spectrometer. Solvents used include EM Omnisolve MeOH, Omnisolve […] passed over basic alumina to remove residual acid, Fluka (Bubcs. Switzerland) puriss. MeOH and dioxane, and Quantum Chemical (Tuscola, Ill.) absolute EtOH. Distilled water was prepared by a Barnistead Nanopure system. All other solvents were reagent trade.\nThrombin inhibition assay: As with any purified blood product, proper care was taken to avoid the transmission of blood-borne pathogens. Thrombin was taken as received (about 1 ml, at 30 μM in 0.75 M sodium chloride storage solution) and divided into 100 μL aliquots. Each aliquot was diluted to 10 ml. using clean. filtered (2 μm) aqueous 0.75 M NaCl and divided into 1 mL samples. Each sample was stored frozen at -80° C. until ready for use. The protein should not be stored at -20 ° C. as this is too close to the cutectic point for the thrombin-salt mixture and freeze-thaw cycling may damage the protein.\nAn assay buffer containing 10 mM Tris, 10 mM HEPES, 0.1% polyethylene glycol (PEG 8000) and 500 mM sodium chloride was prepared to pH 8. Following manufacturer's instructions, 5 ,μmole Spectrozyme TH was dissolved in 1.000 mL filtered nanopure water. A series of [Co^III (acacen)(NH3)2 ]Cl solutions was prepared by dissolving 16.6 mg of the compound in 0.75M NaCl and then diluting aliquots to a range of cobalt concentrations from 4.7 mM to 4.7 nM. Both of the purified materials were assayed.\nThrombin was preincubated with inhibitor in the kinetics buffer (total volume of thrombin, buffer, and inhibitor of […]) for the times specified in FIG. 1. After incubation, the substrate, spectrozyme TH was added (8 mL of 5 mM spectrozyme), and the thrombin-catalyzed hydrolysis rates were monitored at 406 nm. The final concentration of thrombin in the experiments was 3 nM, and the concentration of substrate was […]. The inhibitor concentrations are outlined in FIG. 1. The rates of hydrolysis were determined from the linear portion of the saturation-kinetics plots. The percent activity is determined by dividing the rate of spectrozyme hydrolysis with inhibitor by the rate of hydrolysis without inhibitor and multiplying by 100.\nA vial of thrombin prepared as above was thawed in warm water. 100 μL aliquots were added to 100 μL, samples of the cobalt acacen solutions. One 100 μL aliquot of thrombin solution was diluted with 100 μL 0.75M NaCl to be used as a control. Samples were incubated as needed before assay. […]"}, "[1]": {"target": "T2, Bovine carbonic anhydrase (Bos taurus, UniProt P00921)", "T2 construct": "purchased Calbiochem", "T2 sequence (P00921 whole entry)": "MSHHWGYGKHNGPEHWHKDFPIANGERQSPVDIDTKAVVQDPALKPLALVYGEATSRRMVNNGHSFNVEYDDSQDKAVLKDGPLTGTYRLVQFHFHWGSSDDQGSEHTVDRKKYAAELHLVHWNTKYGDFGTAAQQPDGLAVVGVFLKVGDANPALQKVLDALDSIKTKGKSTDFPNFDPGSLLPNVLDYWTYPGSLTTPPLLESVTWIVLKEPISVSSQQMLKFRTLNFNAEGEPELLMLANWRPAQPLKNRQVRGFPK", "assay": "Inhibition of carbonic anhydrase, p-nitrophenylacetate substrate", "format": "biochemical", "settings": "for % inhibition of CA: inert atmosphere, Tris pH 8", "protocol": "Bovine carbonic anhydrase (20 mg 6.7×10^-7 mol, Calbiochem) was dissolved in 0.5 mL Tris buffer (pH=8, 0.05 M). To this solution was added 30 mg of Co(II)hydroxypropyl acacen (30 mg, 7.6×10^-5 mol) dissolved in 0.5 mL of H2 O. This solution was incubated for 48 hours. The excess cobalt complex was separated from the protein using a PD-10 gel filtration column equilibrated with Tris buffer (pH 8, 0.05 M). This enzyme, which was incubated with the Co(III) complex, retained 100% of its activity.\nTwo samples of bovine carbonic anhydrase (30 mg, 1×10^-6 mol) were dissolved in 3 mL of degassed Tris buffer (pH 8, 0.05 M). To one of the samples was added Co(II)hydroxypropyl acacen (30 mg, 9×10^-5mol). The other sample of bovine carbonic anhydrase served as the control. The solutions were incubated under inert atmosphere (glove box) and a 1 mL aliquot was removed from each sample after 48 and 96 hours of incubation. The protein was then exposed to air and the excess Co(II)hydroxypropyl acacen separated from the protein using a PD-10 gel filtration column (Pharmacia) equilibrated with Tris buffer (pH 8, 0.05 M). The enzymatic activity of the protein was assayed using p-nitroplhenylacetate as the substrate (Pocker et al., Biochem. 6:668-678 (1967))."}, "Thermolysin [2]": {"target": "T3, Thermolysin (Bacillus thermoproteolyticus, UniProt P00800)", "T3 sequence (P00800 233-548)": "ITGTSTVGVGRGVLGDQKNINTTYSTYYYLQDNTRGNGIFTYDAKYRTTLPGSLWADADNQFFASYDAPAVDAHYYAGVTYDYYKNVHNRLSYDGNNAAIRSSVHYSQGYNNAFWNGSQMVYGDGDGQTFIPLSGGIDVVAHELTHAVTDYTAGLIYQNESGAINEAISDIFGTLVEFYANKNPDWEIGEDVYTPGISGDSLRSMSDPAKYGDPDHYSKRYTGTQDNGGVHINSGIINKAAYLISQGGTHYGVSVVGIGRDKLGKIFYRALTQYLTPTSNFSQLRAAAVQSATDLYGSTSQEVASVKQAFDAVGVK", "settings": "incubated with 5 mM inhibitor, HEPES pH 7.0, thermolysin 5×10^-8 M, cobalt inhibitor 1.25×10^-5 M", "protocol": "Thermolysin (2,500,000 units, Calbiochem) was dissolved in 20 mL of Tris buffer (pH 7.2, 0.1 M, 2.5 M NaBr. 0.01 M CaCI2) and stored at 4° C.; enzyme concentration was determined by using E1%^280 =7.65 and a molecular weight of 34,600. This solution was further purified using gel filtration chromatography on an FPLC Using a Superdex 75 column (Pharmacia) equilibrated with 0.1 M Tris, 0.1 M NaBr, 0.01 CaCI, pH 7.2. This stock solution was stored at 4C. N-[3-(2-furyl)acryloyl]glycyl L-leuciniamide (FAGLA) was obtained from Sigma as the thermolysin substrate. A stock solution of FAGLA (4.0 mM) was prepared by dissolving the substrate in dimethylforthamide (DMF) and diluting it with buffer to a final concentration of 0.1 M Tris, 0.1 NaBr and 10 mM CaCl2, pH 7.0 (final concentration of DMF was 2.5%; sec Feder et al., Biochem. 9:2784-2791 (1970)). For all assays, the concentration of enzyme and substrate was 50 nM and 2.0 mM respectively. The peptidase activity of thermolysin was determined by following the decrease in absorption at 346 due to the enzymatic hydrolysis of FAGLA. Initial velocities were determined for ≤10% of the reaction.\nThermolysin (2×10^-5 mol) was incubated with [Co(III)acacen(NH3)2 ]Cl (5 mM) in HEPES buffer (pH 7.0, 0.01 M, 0.005 M CaCl2).\nStock solution of thermolysin was mixed with the cobalt compound dissolved in 0.1 M Tris, 0.1 M NaBr, 0.01 CaCl2, pH 7.2 (run buffer) to yield a final enzyme concentration of […] and a cobalt concentration of 2.5 mM. These solutions were incubated at 25C or 37C for several hours along with a control lacking cobalt compound. Periodically […] aliquots of these solutions were assayed for residual enzyme activity by their addition to a cuvette contain […] of FAGLA stock Solution, and following the absorption decrease at 346 nm as described above. All enzyme assays were performed at 25C."}, "Thermolysin [3]": {"target": "T3, Thermolysin", "from_the_text": "The resulting solution was transferred into the Tris running buffer using a PD-10 column (Pharmacia), and was characterized."}, "thrombin": {"target": "thrombin (Homo sapiens, UniProt P00734)", "settings": "initial estimate for two separate samples", "protocol": "The [Co(III)acacen(NH3)2 ]CI experiments were repeated for a range of cobalt concentrations from 2.4 mM to 2.4 nM after at 12 hour incubation at 25C."}, "[4]": {"assay": "Axial ligand exchange of ammonia for imidazole", "format": "physicochemical", "settings": "in water with excess imidazole, 25° C.", "from_the_text": "In a preferred embodiment, the cobalt compounds find use in the inhibition of proteins and enzymes of tumor cells. As outlined above, Co(III) \"acacen\" compounds can exchange an axial ligand for a different one by a dissociative mechanism with the slow loss of one axial ligand to form a five coordinate intermediate, followed by binding to another suitable ligand. For most cobalt complexes, ligand exchange is a slow process because there is a large loss of ligand field stabilization energy when a ligand is removed from an octahedral d^6 complex (see Huheey et al., Inorganic Chemistry: Principles of Structure and Reactivity, 4th Ed. HarperCollins. N.Y., chapter 13). Generally, the exchange is slow; for example, [Co(III)(acacen)(NH3)2 ]Cl in water with excess imidazole exchanges ammonia for imidazole with a half-life under an hour at 25° C., with the rate of exchange increasing with temperature. However, reduction to cobalt(II) puts an electron into the antibonding dz2 orbital, labilizing the axial ligands. Typical one-electronic reduction potentials with irreversible loss of an axial ligand are around -360 mV vs NHE, (Darbieu et al., Transition Met. Chem., 7:149 (1982)). This property may be exploited as a \"redox switch\" to control the activity of the cobalt compound. […]"}}, "note": "Where two headings read alike, the source gives them in different places. Where a SMILES comes first, the peptide text is derived from it. [ ]: non-standard residue; d: D form.", "data": [{"compound": "N=C(N)NCCC[C@H](NC(=O)[C@@H]1CCCN1C(=O)[C@@H](Cc1ccccc1)NC(=O)CNC(=O)CNC(=O)CN)C(N)=O", "note": "[(Gly)3 dPhePioArg, reference compound] (H-GGG[dF]PR-NH2)", "values": [{"measurement": "Ki", "setting": "Human a-thrombin", "value": "~209", "unit": "µM"}]}, {"compound": "Co(II)hydroxypropyl acacen", "values": [{"measurement": "% inhibition of CA", "setting": "[1]; 48 hours incubation", "value": 33.8, "unit": "%"}, {"measurement": "% inhibition of CA", "setting": "[1]; 96 hours incubation", "value": 43.2, "unit": "%"}, {"measurement": "activity relative to control", "setting": "Human a-thrombin", "value": 42, "unit": "%"}]}, {"compound": "[Co(III)hydroxypropylacacen(NH3)2 ]CH3 COO [Co(III) complex]", "values": [{"measurement": "enzyme activity retained after incubation", "setting": "[1]; incubated 48 hours, Tris buffer pH 8, excess complex removed by gel filtration", "value": 100, "unit": "%"}]}, {"compound": "CC(=O)C=C(C)NCCNC(C)=CC(C)=O", "note": "[cobalt-free ligand, acetylacetone etlhylenediamine]", "values": [{"measurement": "thrombin activity after incubation", "setting": "Human a-thrombin", "value": "no effect"}]}, {"compound": "CC([O-])=CC(C)=NCCN=C(C)C=C(C)[O-].N.N.[Cl-].[Co+3]", "note": "[[Co(III)acacen(NH3)2]Cl]", "values": [{"measurement": "% inhibition", "setting": "Thermolysin [2]; 45 minutes incubation", "value": 46.2, "unit": "%"}, {"measurement": "% inhibition", "setting": "Thermolysin [2]; 190 minutes incubation", "value": 63.9, "unit": "%"}, {"measurement": "% inhibition", "setting": "Thermolysin [2]; 322 minutes incubation", "value": 77.7, "unit": "%"}, {"measurement": "loss of enzyme activity due to irreversible inactivation by the cobalt complex", "setting": "Thermolysin [3]; 5 mM cobalt complex, 10 μM thermolysin, overnight at 25C in presence of 50 μM phosphoramidon, after removal of the inhibitor", "value": "no detectable loss of enzyme activity"}, {"measurement": "cobalt complexes bound to the enzyme", "setting": "Thermolysin [3]; active enzyme, active site protected by phosphoramidon", "value": "two"}, {"measurement": "equivalents of the cobalt compound bound for each enzyme molecule", "setting": "Thermolysin [3]; thermolysin completely inactivated by the cobalt complex", "value": "three"}, {"measurement": "activity relative to control", "setting": "Human a-thrombin", "value": 0, "unit": "%"}, {"measurement": "thrombin activity after incubation", "setting": "Human a-thrombin", "value": "completely inactive"}, {"measurement": "lowest cobalt concentration found to inhibit the protein", "setting": "Human a-thrombin; range 2.4 mM to 2.4 nM, 12 hour incubation at 25C", "value": 24, "unit": "µM"}, {"measurement": "inhibition at lower incubation temperature", "setting": "Human a-thrombin; range of cobalt concentrations, 3 hours at 5C, activity determined at 25C", "value": "Partial inhibition"}, {"measurement": "cobalts per enzyme", "setting": "thrombin", "value": "5-8"}, {"measurement": "half-life of exchange of ammonia for imidazole", "setting": "[4]", "value": "under an hour"}]}]}
